Results on 14 molecules are retold here after the SangsterLogP compilation.

The nature of this series: method code SF-AS, from DOI: 10.1006/pest.1994.1057.
Take `O=[N+]([O-])C=C1NCCN1CCc1ccc(Cl)nc1`: the logP was -0.23. Next, `O=[N+]([O-])C=C1NCCN1Cc1ccccn1`: -0.87; `O=[N+]([O-])/C=C1\NCCN1Cc1ccc(Cl)nc1`: -0.19. For `CN1CCN(Cc2ccc(Cl)nc2)C1=N[N+](=O)[O-]`, the logP worked out at 0.26. Next, `O=[N+]([O-])C=C1NCCN1c1ccc(Cl)nc1`: -0.23; `O=[N+]([O-])C=C1SCCN1Cc1ccc(Cl)nc1`: 0.65.

For `O=[N+]([O-])C=C1NCCCN1Cc1ccc(Cl)nc1`, the logP was -0.62. Next, `O=[N+]([O-])C=C1NCCN1Cc1ccc(Cl)cc1`: 0.99; `N#CN=C1NCCN1Cc1ccc(Cl)nc1`: 0.77. With `O=[N+]([O-])C=C1NCCN1Cc1ccncc1`, the logP was -1.05. Next, `O=[N+]([O-])/C=C1/NCCN1Cc1cccnc1`: -1.02; `Cc1ccc(CN2CCNC2=C[N+](=O)[O-])cn1`: -0.59. On to `O=[N+]([O-])N=C1NCCN1Cc1cccnc1`, for which the logP is -0.19. Regarding `O=[N+]([O-])/C=C1\NCCN1Cc1ccccc1`, the logP was 0.33.

One may read the logP as a log measure of how a compound divides between an organic and an aqueous phase.
